The target of data set [1] is T1, human ProRS (prolyl tRNA synthetase moiety of glutamyl prolyl tRNA synthetase, EPRS) (Homo sapiens, UniProt P07814).
T1 construct: The prolyl tRNA synthetase moiety (ProRS) in the cDNA of glutamyl prolyl tRNA synthetase was subcloned; 6xHis (N, cleaved yes); made in house; host or cells: E. coli BL21 (DE3)
T1 sequence (P07814 1007-1512 limits assumed): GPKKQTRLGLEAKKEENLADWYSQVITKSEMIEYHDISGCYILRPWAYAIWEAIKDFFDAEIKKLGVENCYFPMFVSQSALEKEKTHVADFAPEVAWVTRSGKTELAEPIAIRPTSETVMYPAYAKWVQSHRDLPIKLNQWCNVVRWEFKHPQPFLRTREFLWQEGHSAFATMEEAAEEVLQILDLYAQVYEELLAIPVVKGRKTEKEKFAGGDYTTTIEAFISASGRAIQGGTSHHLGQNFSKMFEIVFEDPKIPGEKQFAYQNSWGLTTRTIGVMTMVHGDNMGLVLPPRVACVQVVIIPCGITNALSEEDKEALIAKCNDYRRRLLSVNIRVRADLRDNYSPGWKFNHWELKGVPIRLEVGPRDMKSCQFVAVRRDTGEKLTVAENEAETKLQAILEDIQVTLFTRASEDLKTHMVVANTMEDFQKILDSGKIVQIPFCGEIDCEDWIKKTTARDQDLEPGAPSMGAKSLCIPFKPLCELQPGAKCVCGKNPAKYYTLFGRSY
Kind of data set: Assay for inhibitors of prolyl tRNA synthetase activity (ProRS assay, labeled proline incorporation). In kind it is biochemical. Conditions: human ProRS 20 nM, 10 min at 37° C.; read-out: EPRS IC50. An excerpt: In order to establish the activities of the compounds highlighted above, we determined extent of inhibition of prolyl tRNA synthetase activity in dose response curves to obtain IC50 values.
The prolyl tRNA synthetase moiety (ProRS) in the cDNA of glutamyl prolyl tRNA synthetase was subcloned, tagged with a single biotin, purified and used in the assay.
Briefly, human ProRS with a 6×N-terminal His tag in pET28N with TVMV BioP was transformed in E. coli BL21 (DE3) cells, selected, overexpressed and purified using a Ni Seph 6 FF XK 16/20 column in the first stage. Ni-NTA eluates were pooled and treated with TVMV protease, and biotinylated using d-Biotin, MgCl2, ATP and the BirA enzyme. This was rerun through a Ni column as before. The eluates were further enriched and purified using membrane ultrafiltration and a SuperDex 200 XK 16/60 column, and peak fractions were confirmed by SDS-PAGE prior to protein amount determination, aliquoting and storage at −80° C. • ProRS assay was performed in 96 well plates in a final reaction volume of 20 μl, using staggered additions of Tris-Cl (pH 7.5, 60 mM), dithiothreitol (2 mM), ATP (5 mM, pH 7.0), MgCl2 6 mM), ProRS (20 nM, with pre-determined active fraction range) and bovine tRNA (20 μg). Controls and compounds, at various concentrations (10 μM to 0.5 nM), were incubated on ice with enzyme mix for 15 min followed by addition of proline (non-labeled and labeled, 3.96 and 1.04 μM (1 μCi) respectively) to initiate the reaction. Reaction was carried out for 10 min at 37° C. and terminated by addition of TCA (10%, 100 μl). Reaction mix was collected on a Whatman GF/B filter using a vacuum filtration manifold. This filter was washed 3 times with 5% TCA followed by 2 washes with ethanol, air dried, and read using a liquid scintillation counter (TopCount NXT) using MicroScint O. IC50 values were calculated and analyzed using ToolSet (4-parameter plot) and depicted herein.

Another data set concerns Rat hepatocytes. Kind of data set: GSH trapping assay in rat hepatocytes. In kind it is in vitro ADME. Conditions: 30 μM, 24 hr incubation, LC-MS. As to the method: Rat hepatocytes were isolated from male Sprague-Dawley rats (Vivo Biotech Ltd, HYD, India), weighing 230 to 280 g by the two step collagenase perfusion method (seglen, 1976; Berry M N and Friend D S.1969). Rat hepatocytes were cultured in Dulbecco's Modified Eagle's Medium (DMEM, Gibco®, USA) supplemented with 10^−6 M dexamethasone (Gibco®), 5% fetal bovine serum (Gibco®) and cocktail-A mix (CM3000, Gibco®) containing HEPES buffer (PH 7.4), GlutaMAX™, human recombinant insulin, penicillin and streptomycin. Initial cell viability assessed by Trypanblue stain 0.4% (Sigma, UK) and viability more than 80% were considered for culturing. Hepatocytes were seeded in 96 well type-I collagen coated plates (Gibco®) at 4×10^4 cells/well in 100 μL of the culture medium and incubated at 37° C. in 5% CO2 and 95% relative humidity (RH) for 4 hr of cell attachment.
After 4 hr incubation, rat hepatocytes were washed twice with pre-warmed (37° C.) DMEM incubation medium supplemented with 10^−7 M dexamethasone and cell maintenance cocktail-B (CM4000, Gibco®) solution to remove unattached cells. Post washing hepatocytes were treated with test and reference compounds in incubation medium at single concentration (30 μM) in duplicate and incubate further for 24 hr at 37° C. with 5% CO2 and 95% RH. The final concentration of DMSO in medium was 0.5%.
Post 24 hr incubation, hepatocyte samples were quenched with equal volumes of acetonitrile containing 0.1% formic acid followed by vortex mix, sonicate and centrifuge at 12000 rpm at room temperature for 5 min. Supernatant samples were analyzed for GSH adducts on a C18 reverse-phase column (Xbridge™ Shield, C18, 4.6×150 mm, 3.5 μm) with solvent A (10 mM ammonium formate and 0.1% formic acid/water) and solvent B (0.1% formic acid/acetonitrile).
The column was eluted with 5% B for 5 min and then with a linear gradient to 20% B over 10 min and it was maintained up to 15 min, then it was increased linearly to 40% B up to 27 min and then increase to 90% B up to 29 min, and then equilibrate back the column to 5% B up to 33 min at a flow rate of 0.6 ml/min. The column effluent was directed into the ESI source of a LTQ Velos Orbitrap mass spectrometer (Thermo Fisher Scientific, San Jose, Calif.). The ESI conditions were as follows: sheath gas flow rate, 40 arbitrary units; auxiliary gas, 30 arbitrary units; spray voltage, 4.5 kV; capillary temperature, 230° C.; capillary voltage, 30 V; and tube lens offset, 25 V. Data were acquired in positive ion mode using Xcalibur software (Thermo Fisher Scientific) with one full scan followed by two data-dependent scans of the most intense and the second most intense ions. During the data interpretation the characteristic fragments of neutral loss of glycine (75.0320 Da), pyroglutamic acid (129.0426 Da) and loss of neutral moiety GSH (307.0838 Da) and/or a specific fragment of (GSH+H)^+ (m/z 308.0911) were monitored. Finally the fragments ions with m/z e.g. 179.0485, 177.0328 and 162.0219 Da, which were derived from the glutathione moiety were used to report GSH positive results.

In patent publication US20210163443A1, “Febrifugine Derivatives” (BRISTOL-MYERS SQUIBB COMPANY, priority 2019, published 2021) one finds IC50 and GSH adduct formation data, which are given here for 17 compounds.

As a reminder, the IC50 is the point on the concentration scale where inhibition reaches its midpoint.

Counter-ions that a name gives are not always drawn.

For the compound `Cc1cc(Br)cc2c(=O)n(CC(=O)C[C@H]3NCCC[C@@H]3O)cnc12.Cl` [Example 3, 6-Bromo-3-{3-[(2R,3S)-3-hydroxypiperidin-2-yl]-2-oxopropyl}-8-methylquinazolin-4(3H)-one hydrochloride], in data set [1], the IC50 worked out at 4 nM. In addition, in the data set with Rat hepatocytes, the GSH adduct formation result is given as “Negative”.

On to `Cc1cc(Cl)cc2c(=O)n(C[C@@H](O)C[C@H]3NCCC[C@@H]3O)cnc12.Cl` [Example 30, 6-Chloro-3-{(S)-2-hydroxy-3-[(2R,3S)-3-hydroxypiperidin-2-yl]propyl}-8-methylquinazolin-4(3H)-one hydrochloride], for which, in data set [1], the IC50 is 19 nM. In addition, the GSH adduct formation result with Rat hepatocytes was “Negative”.

With `Cl.O=c1c2c(-c3cccc(F)c3)cccc2ncn1C[C@@H](O)C[C@H]1NCCC[C@@H]1O` [Example 49], the GSH adduct formation entry in the data set with Rat hepatocytes is listed as “Negative”.

Regarding `Cc1cc(C2CCOCC2)cc2c(=O)n(C[C@@H](O)C[C@H]3NCCC[C@@H]3O)cnc12` [Example 57, 3-{(S)-2-Hydroxy-3-[(2R,3S)-3-hydroxypiperidin-2-yl]propyl}-8-methyl-6-(tetrahydro-2H-pyran-4-yl)quinazolin-(3H)-one hydrochloride], the IC50 in data set [1] is 52 nM.

Take `Cc1cc(N2CCCC2)cc2c(=O)n(C[C@@H](O)C[C@H]3NCCC[C@@H]3O)cnc12` [Example 58, 3-{(S)-2-Hydroxy-3-[(2R,3S)-3-hydroxypiperidin-2-yl]propyl}-8-methyl-6-(pyrrolidin-1-yl)quinazolin-4(3H)-one dihydrochloride]: the IC50 in data set [1] amounted to 321 nM.

In the case of `O=c1c2c(C(F)(F)F)cccc2ncn1C[C@@H](O)C[C@H]1NCCC[C@@H]1O` [Example 59, 3-{(S)-2-Hydroxy-3-[(2R,3S)-3-hydroxypiperidin-2-yl]propyl}-5-(trifluoromethyl)quinazolin-4(3H)-one hydrochloride], the IC50 in data set [1] was 316 nM.

Consider `O=c1c2c(-c3cccc(C(F)(F)F)c3)cccc2ncn1C[C@@H](O)C[C@H]1NCCC[C@@H]1O` [Example 60, 3-{(S)-2-Hydroxy-3-[(2R,3S)-3-hydroxypiperidin-2-yl]propyl}-5-[3-(trifluoromethyl)phenyl]quinazolin-4(3H)-one hydrochloride], for which, in data set [1], the IC50 is 38 nM.

Consider `O=c1c2c(-c3ccc(F)c(F)c3)cccc2ncn1C[C@@H](O)C[C@H]1NCCC[C@@H]1O` [Example 61, 5-(3,4-Difluorophenyl)-3-{(S)-2-hydroxy-3-[(2R,3S)-3-hydroxypiperidin-2-yl]propyl}quinazolin-4(3H)-one hydrochloride], for which the IC50 in data set [1] was 69 nM.

With `O=c1c2c(-c3cccnc3)cccc2ncn1C[C@@H](O)C[C@H]1NCCC[C@@H]1O` [Example 62, 3-{(S)-2-Hydroxy-3-[(2R,3S)-3-hydroxypiperidin-2-yl]propyl}-5-(pyridin-3-yl)quinazolin-4(3H)-one dihydrochloride], the 50% inhibitory concentration (IC50) in data set [1] is 53 nM.

As for `Cc1cc(Cl)cc2c(=O)n(C[C@@H](O)C[C@H]3NCCC[C@@H]3OC(=O)C(C)(C)C)cnc12` [Example 63, (2R,3S)-2-{(S)-3-[6-chloro-8-methyl-4-oxoquinazolin-3(4H)-yl]-2-hydroxypropyl}piperidin-3-ylpivalate hydrochloride], in data set [1], the IC50 is greater than 10000 nM.

Regarding `Cc1cc(-c2ccn(C)n2)cc2c(=O)n(C[C@@H](O)C[C@H]3NCCC[C@@H]3O)cnc12` [Example 64, 3-{(S)-2-hydroxy-3-[(2R,3S)-3-hydroxypiperidin-2-yl]propyl}-8-methyl-6-(1-methyl-1H-pyrazol-3-yl)quinazolin-4(3H)-one hydrochloride], in data set [1], the half-maximal inhibitory concentration (IC50) was 30 nM.

On to `COC(=O)N1CCC[C@H](O)[C@H]1C[C@H](O)Cn1cnc2c(C)cc(Cl)cc2c1=O` [Example 65, Methyl (2R,3S)-2-((S)-3-(6-chloro-8-methyl-4-oxoquinazolin-3(4H)-yl)-2-hydroxypropyl)-3-hydroxypiperidine-1-carboxylate], for which the IC50 in data set [1] was greater than 10000 nM.

In the case of `Cc1cc(-c2cscn2)cc2c(=O)n(C[C@@H](O)C[C@H]3NCCC[C@@H]3O)cnc12` [Example 66, 3-((S)-2-hydroxy-3-((2R,3S)-3-hydroxypiperidin-2-yl)propyl)-8-methyl-6-(thiazol-4-yl)quinazolin-4(3H)-one hydrochloride], the IC50 in data set [1] is 13 nM.

For the compound `Cc1cc(C2CCC2)cc2c(=O)n(C[C@@H](O)C[C@H]3NCCC[C@@H]3O)cnc12` [Example 67, 6-cyclobutyl-3-{(S)-2-hydroxy-3-[(2R,3S)-3-hydroxypiperidin-2-yl]propyl}-8-methylquinazolin-4(3H)-one], in data set [1], the IC50 came out at 18 nM.

With `O=c1c2c(C3CC3)cccc2ncn1C[C@@H](O)C[C@H]1NCCC[C@@H]1O` [Example 68, 5-Cyclopropyl-3-{(S)-2-hydroxy-3-[(2R,3S)-3-hydroxypiperidin-2-yl]propyl}quinazolin-4(3H)-one hydrochloride], the IC50 in data set [1] came to 9 nM.

`Cc1cc(C2CCNCC2)cc2c(=O)n(C[C@@H](O)C[C@H]3NCCC[C@@H]3O)cnc12` [Example 69, 3-{(S)-2-hydroxy-3-[(2R,3S)-3-hydroxypiperidin-2-yl]propyl}-8-methyl-6-(piperidin-4-yl)quinazolin-4(3H)-one dihydrochloride]: in data set [1], the IC50 turned out to be 106 nM.

As to `Cc1cc(Cl)cc2c(=O)n(C[C@@H]3C[C@@H]4[C@@H](O)CCCN4CO3)cnc12` [Example 72, 6-Chloro-3-{[(3S,4aR,5S)-5-hydroxyhexahydro-1H,3H-pyrido[1,2-c][1,3]oxazin-3-yl]methyl}-8-methylquinazolin-4(3H)-one], the IC50 in data set [1] is greater than 10000 nM.
